This is an account of results in ChEMBL document CHEMBL5653631, “A Potent and Selective ULK1 Inhibitor Suppresses Autophagy and Sensitizes Cancer Cells to Nutrient Stress” (iScience, 2018).

Test [1] has as its target T1, Receptor-interacting serine/threonine-protein kinase 1 (Homo sapiens) (UniProt Q13546).
T1 sequence (whole entry): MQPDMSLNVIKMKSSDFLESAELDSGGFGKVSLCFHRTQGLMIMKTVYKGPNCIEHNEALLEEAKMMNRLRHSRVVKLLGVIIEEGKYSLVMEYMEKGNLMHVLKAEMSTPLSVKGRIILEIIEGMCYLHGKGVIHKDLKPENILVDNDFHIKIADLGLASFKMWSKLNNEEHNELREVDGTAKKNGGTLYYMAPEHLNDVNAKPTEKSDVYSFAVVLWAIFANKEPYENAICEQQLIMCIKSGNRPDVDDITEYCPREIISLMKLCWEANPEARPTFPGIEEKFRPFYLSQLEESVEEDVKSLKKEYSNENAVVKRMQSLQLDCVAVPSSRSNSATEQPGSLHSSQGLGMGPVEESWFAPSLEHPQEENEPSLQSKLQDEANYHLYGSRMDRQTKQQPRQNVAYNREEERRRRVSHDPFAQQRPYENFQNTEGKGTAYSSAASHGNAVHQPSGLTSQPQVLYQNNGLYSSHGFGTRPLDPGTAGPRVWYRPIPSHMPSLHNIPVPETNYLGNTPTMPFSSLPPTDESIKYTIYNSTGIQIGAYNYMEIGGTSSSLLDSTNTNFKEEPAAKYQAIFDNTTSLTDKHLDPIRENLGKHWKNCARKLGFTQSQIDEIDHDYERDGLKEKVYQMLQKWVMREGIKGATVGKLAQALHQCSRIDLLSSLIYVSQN
Put plainly: Inhibition of human recombinant RIPK1 at 40 nM in presence of ATP by radiometric assay relative to control.

Test [2] deals with Tyrosine-protein kinase SYK (Homo sapiens) (UniProt P43405). Kind of test: Inhibition of human recombinant SYK at 40 nM in presence of ATP by radiometric assay relative to control.
Test [3] deals with T2, Testis-specific serine/threonine-protein kinase 2 (Homo sapiens) (UniProt Q96PF2).
T2 sequence (whole entry): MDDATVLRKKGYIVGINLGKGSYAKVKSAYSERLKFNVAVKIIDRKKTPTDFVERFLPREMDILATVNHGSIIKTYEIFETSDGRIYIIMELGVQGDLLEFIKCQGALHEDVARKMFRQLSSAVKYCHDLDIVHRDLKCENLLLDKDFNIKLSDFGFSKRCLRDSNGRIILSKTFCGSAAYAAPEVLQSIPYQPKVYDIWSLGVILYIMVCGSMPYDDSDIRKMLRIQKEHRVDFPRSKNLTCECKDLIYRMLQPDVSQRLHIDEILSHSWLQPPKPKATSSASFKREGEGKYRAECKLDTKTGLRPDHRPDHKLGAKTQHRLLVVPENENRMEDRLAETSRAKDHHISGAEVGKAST
Put plainly: Inhibition of human recombinant TSSK2 at 40 nM in presence of ATP by radiometric assay relative to control.

Test [4] addresses Serine/threonine-protein kinase pim-1 (Homo sapiens) (UniProt P11309). Put plainly: Inhibition of human recombinant PIM1 at 40 nM related to control ULK1.
For test [5], the target named is T3, Serine/threonine-protein kinase ULK3 (Homo sapiens) (UniProt Q6PHR2).
T3 sequence (whole entry): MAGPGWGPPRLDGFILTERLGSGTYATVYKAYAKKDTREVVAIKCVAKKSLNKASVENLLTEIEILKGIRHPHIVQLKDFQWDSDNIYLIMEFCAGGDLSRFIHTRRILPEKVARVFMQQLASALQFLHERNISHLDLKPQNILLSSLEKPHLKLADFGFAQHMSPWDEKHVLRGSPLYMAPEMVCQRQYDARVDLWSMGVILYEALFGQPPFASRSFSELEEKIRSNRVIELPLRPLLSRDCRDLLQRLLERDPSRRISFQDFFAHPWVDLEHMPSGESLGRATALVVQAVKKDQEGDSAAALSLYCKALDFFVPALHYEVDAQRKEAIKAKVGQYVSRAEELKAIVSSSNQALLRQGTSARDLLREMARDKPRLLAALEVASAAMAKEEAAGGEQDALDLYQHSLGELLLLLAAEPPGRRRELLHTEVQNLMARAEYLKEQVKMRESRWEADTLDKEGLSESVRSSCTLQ
Put plainly: Inhibition of human recombinant ULK3 at 40 nM related to control ULK1.

Test [6] addresses Serine/threonine-protein kinase 24 (Homo sapiens) (UniProt Q9Y6E0). Put plainly: Inhibition of human recombinant MST3 at 500 nM in presence of ATP by radiometric assay relative to control.
For test [7], the target named is Aurora kinase B (Homo sapiens) (UniProt Q96GD4). Kind of test: Inhibition of human recombinant AurB at 500 nM related to control ULK1.
Sequence of Aurora kinase B (Homo sapiens) (Q96GD4 whole entry): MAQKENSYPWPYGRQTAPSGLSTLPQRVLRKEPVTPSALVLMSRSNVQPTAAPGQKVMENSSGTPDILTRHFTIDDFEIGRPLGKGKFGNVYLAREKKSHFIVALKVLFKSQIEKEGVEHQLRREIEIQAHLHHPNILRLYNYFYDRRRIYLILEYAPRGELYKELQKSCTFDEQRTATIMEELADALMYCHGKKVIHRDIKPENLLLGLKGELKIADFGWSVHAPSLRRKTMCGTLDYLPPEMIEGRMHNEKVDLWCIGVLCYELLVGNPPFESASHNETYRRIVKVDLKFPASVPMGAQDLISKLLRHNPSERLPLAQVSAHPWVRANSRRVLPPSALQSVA
Test [8] deals with T4, Bone morphogenetic protein receptor type-2 (Homo sapiens) (UniProt Q13873).
T4 sequence (whole entry): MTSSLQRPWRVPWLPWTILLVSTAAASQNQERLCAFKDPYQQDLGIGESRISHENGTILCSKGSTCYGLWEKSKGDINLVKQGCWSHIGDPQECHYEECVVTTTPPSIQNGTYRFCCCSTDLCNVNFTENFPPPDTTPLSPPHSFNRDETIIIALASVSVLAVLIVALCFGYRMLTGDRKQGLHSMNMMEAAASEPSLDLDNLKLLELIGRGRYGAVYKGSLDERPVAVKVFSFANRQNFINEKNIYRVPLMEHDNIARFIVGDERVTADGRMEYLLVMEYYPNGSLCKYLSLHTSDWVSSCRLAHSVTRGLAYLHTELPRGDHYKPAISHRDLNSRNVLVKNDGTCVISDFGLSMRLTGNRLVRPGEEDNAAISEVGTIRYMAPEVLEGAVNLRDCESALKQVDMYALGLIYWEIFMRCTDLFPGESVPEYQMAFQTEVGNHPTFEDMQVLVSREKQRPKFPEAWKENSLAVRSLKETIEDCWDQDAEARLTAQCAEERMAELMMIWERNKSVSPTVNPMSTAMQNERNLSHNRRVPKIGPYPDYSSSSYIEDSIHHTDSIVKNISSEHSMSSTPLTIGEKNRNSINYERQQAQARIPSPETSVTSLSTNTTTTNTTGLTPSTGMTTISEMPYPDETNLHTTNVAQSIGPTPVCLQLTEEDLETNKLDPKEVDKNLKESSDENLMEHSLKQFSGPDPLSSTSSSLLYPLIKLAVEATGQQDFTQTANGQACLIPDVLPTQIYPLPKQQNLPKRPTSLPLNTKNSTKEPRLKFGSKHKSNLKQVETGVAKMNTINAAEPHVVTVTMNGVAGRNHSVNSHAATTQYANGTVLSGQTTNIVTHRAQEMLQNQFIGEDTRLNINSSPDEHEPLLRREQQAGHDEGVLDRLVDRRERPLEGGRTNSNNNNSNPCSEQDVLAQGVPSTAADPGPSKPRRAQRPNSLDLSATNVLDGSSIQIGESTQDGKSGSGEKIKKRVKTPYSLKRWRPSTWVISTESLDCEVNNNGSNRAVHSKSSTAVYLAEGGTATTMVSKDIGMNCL
Put plainly: Inhibition of human recombinant BMPR2 at 15 nM related to control ULK1.

The target in test [9] is Ephrin type-A receptor 5 (Homo sapiens) (UniProt P54756). Kind of test: Inhibition of human recombinant EphA5 at 15 nM related to control ULK1.
Sequence of Ephrin type-A receptor 5 (Homo sapiens) (P54756 whole entry): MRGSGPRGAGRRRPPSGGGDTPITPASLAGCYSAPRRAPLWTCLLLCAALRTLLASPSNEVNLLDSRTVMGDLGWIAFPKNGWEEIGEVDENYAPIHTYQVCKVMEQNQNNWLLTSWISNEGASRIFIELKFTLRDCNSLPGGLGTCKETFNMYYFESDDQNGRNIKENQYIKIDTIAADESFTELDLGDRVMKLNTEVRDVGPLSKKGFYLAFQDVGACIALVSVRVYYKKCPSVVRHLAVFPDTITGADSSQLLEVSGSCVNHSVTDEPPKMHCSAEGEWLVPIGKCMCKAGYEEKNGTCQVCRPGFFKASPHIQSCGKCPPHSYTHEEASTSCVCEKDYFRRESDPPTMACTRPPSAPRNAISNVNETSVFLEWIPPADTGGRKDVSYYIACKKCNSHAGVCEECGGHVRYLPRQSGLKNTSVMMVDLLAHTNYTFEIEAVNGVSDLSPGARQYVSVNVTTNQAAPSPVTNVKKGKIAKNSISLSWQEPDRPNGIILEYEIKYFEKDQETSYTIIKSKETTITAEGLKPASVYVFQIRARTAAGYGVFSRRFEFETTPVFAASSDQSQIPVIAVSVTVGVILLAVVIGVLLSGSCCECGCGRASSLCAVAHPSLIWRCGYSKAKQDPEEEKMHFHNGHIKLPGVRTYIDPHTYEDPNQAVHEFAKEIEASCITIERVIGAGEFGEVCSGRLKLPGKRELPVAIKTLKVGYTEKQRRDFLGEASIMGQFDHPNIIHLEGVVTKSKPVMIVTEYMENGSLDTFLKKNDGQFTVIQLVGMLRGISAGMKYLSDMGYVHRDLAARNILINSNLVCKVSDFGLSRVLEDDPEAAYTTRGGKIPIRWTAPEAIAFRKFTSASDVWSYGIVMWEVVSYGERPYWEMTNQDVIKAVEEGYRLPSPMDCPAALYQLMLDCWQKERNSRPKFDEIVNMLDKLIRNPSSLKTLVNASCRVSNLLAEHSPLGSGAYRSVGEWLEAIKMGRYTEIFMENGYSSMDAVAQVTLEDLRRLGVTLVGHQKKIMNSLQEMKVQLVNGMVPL

Sequence of Serine/threonine-protein kinase 24 (Homo sapiens) (Q9Y6E0 whole entry, looked up): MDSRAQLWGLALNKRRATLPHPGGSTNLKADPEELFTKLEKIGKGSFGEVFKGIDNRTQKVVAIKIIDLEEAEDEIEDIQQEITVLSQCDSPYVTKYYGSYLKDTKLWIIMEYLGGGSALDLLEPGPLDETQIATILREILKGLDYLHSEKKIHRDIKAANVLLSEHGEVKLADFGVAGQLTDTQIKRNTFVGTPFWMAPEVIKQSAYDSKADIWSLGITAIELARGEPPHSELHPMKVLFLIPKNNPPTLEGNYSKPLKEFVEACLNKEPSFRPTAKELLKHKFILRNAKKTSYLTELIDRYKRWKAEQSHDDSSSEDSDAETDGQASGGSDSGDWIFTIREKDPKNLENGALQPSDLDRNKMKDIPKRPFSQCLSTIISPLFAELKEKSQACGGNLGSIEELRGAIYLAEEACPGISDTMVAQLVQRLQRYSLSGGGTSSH
Sequence of Serine/threonine-protein kinase pim-1 (Homo sapiens) (P11309 whole entry, looked up): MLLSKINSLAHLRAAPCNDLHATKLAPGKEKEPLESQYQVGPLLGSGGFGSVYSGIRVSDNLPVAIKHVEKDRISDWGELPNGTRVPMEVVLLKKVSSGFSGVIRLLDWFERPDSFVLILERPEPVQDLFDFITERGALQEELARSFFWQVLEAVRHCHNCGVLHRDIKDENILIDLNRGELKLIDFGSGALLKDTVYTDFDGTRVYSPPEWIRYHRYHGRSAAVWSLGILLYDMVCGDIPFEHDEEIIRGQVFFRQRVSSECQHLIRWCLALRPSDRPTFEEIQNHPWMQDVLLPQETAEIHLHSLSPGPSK

The inhibition is the change of the read-out against control, counted positive when it falls. Regarding `O=C(N[C@@H](C1CC1)C(F)(F)F)c1cc(-c2cnn3cc(-c4ccc(F)cc4)cnc23)cs1`, the inhibition in [1] stood at 2%; in [2] it was 0%; in test [3], 0%. In addition, the fold change (FC) in [4] and in test [5] was 0.07 each time.

Consider `CNC(=O)c1ccccc1Oc1nc(Nc2cc(OC)c(OC)c(OC)c2)ncc1Br`, for which, in [6], the inhibition worked out at 58%. The fold change (FC) in [7] worked out at 1.24.

For the compound `CC(C)[C@H](NC(=O)c1cc(-c2cnn3cc(-c4ccc(OCCN5CCCCC5)cc4)cnc23)cs1)C(F)(F)F`, the fold change (FC) amounted to 0.06 in test [8] and 0 in test [9].
